How the values were obtained:
[1] = system: U2OS-DRGFP cells; assay: DR-GFP reporter gene conversion assay for homologous recombination repair; assay type: cell-based; details: 24 h exposure; inhibition in the 0 to 5 μM range; FIG. 8A
Description: (§1) FIG. 8 is a composite figure showing that C527 inhibits homologous recombination repair. […] U2OS-DRGFP cells were transfected with I-SCE-I and then exposed to C527 at the indicated concentration for 24 h. Cells were then subjected to flow cytometry analysis. The percentage of GFP positive cells was normalized by solvent vehicle treated group. […] HeLa cells, integrated with the NHEJ reporter, were treated with C527 and analyzed as described in (FIG. 8A). […] HeLa cells were pre-treated with DMSO or C527 at the indicated concentration and then exposed to camptothecin (CPT) for 1 hr. RAD51 foci were detected using immunofluorescence.
HR repair activity was analyzed using DR-GFP reporter as previously described (Pierce A J et al, Genes Dev, 13: 2633). U2OS-DRGFP cells carrying a chromosomally integrated single copy of HR repair substrate were used to test the effect of C527 on HR. DSB-induced HR results in restoration and expression of GFP and was quantified by FACS. Briefly, 24 h after induction of chromosomal double-strand breaks through the expression of I-SceI, cells were treated with C527 for 24 h. Cells were subjected to FACS analysis and the percentage of GFP-positive cells was quantitated relative to the total viable cell number. For each analysis, 100,000 cells were processed. […]

[2] = molecular target: T1, UCH-L1 (Homo sapiens, UniProt P09936); assay: ubiquitin-AMC assay with UCH-L1; assay type: biochemical; details: in vitro
T1 sequence (P09936 1-223): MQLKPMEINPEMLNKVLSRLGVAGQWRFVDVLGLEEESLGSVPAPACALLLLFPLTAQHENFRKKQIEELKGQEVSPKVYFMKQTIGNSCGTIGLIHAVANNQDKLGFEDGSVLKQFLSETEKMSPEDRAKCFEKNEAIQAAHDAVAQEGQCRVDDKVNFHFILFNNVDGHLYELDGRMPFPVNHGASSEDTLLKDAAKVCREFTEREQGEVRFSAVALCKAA
Description: (§2) FIG. 6 is a composite figure showing that C527 is a pan-deubiqutinating enzyme inhibitor […]. Ubiquitin-AMC assay was performed using purified (FIG. 6A) USP12/UAF1/WDR20 (FIG. 6B) USP5 and (FIG. 6C) UCH-L1. Enzymes were incubated with DMSO or C527 at indicated concentrations for 3 h, followed by the addition of Ub-AMC at 0.5 μM final concentration. The fluorescence at […] was measured to indicate the enzymatic activity. FIG. 6D is a summary showing the IC50 of C527 against the indicated enzymes.
(§3) The in vitro enzymatic assays were performed using purified proteins from Sf9 cells as described previously (Cohn et al.). The assays using ubiquitin-AMC (Ub-7-amido-4-methylcoumarin; Boston Biochem) as substrate was carried out in a reaction buffer containing 20 mM HEPES-KOH (pH 7.8), 20 mM NaCl, 0.1 mg/ml ovalbumin, 0.5 mM EDTA and 10 mM dithiothreitol. The fluorescence was measured by FluoStar Galaxy Fluorometer (BMG Labtech). For the Ub-vinylsulfone (VS) assay, the proteins were incubated with Ub-VS at 0.5 μM final concentration for 1 h at 30° C., followed by the immunoblotting analysis.
(§4) To examine the specificity of C527 in USP1/UAF1 inhibition, its ability to inhibit other DUB enzymes in vitro was examined. […] Moreover, the active complex of USP12 contains an additional WD40 subunit (WDR20). […]

[3] = system: HeLa cells; assay: sensitization to DNA damaging agents, MTT assay; assay type: cell-based, human; details: 1 μM C527 for 24 h, FIG. 10
Description: FIG. 10 is a composite figure showing that C527 sensitizes tumor cells to DNA damaging agents. HeLa cells were plated in 96-well plates and treated with 1 μM C527 for 24 h, followed by treatment with mitomycin C (MMC, 0.25 μM), camptothcin (CPT, 0.1 μM), or etoposide for 4 more days. Cell viability was assessed using the MTT assay.
HeLa cells were seeded in 96-well plate and treated with C527 for 4 more days. 20 μL MTT (Sigma) at 5 mg/mL was added to each well and cells were left at 37° C. for incubation. 4 h later, the metabolic product was dissolved in a solution containing 10% SDS, 5% isopropanol and 0.01 mol/L HCl. Optical density at 565 nm was measured in an automated plate reader. The percentage of cell survival was determined by normalizing to solvent vehicle treated cells.
Inhibitors of the FA-BRCA pathway are known to sensitize tumor cells to the cytotoxic effects of ICL-[…] agents. Specifically, it is known that proteasome inhibitors block FANCD2 monoubiquitination, perhaps through depletion of intracellular pools of free ubiquitin, resulting in inhibition of HR repair (Chirnomas D, Taniguchi T, de la Vega M, et al. Chemosensitization to cisplatin by inhibitors of the Fanconi anemia/BRCA pathway. Mol Cancer Ther. 2006; 5:952-961). The ability of C527 to sensitize pretreated human cells to MMC or to other agents was tested.

[4] = system: HeLa cells, integrated with the NHEJ reporter; assay: NHEJ reporter assay; assay type: cell-based, human; details: same condition as HR assay; FIG. 8B
Description: as §1
Disruption of FANCD2 monoubiquitination or of USP1 activity (Oestergaard V H, Langevin F, Kuiken H J, et al. Deubiquitination of FANCD2 is required for DNA crosslink repair. Mol Cell. 2007; 28:798-809; Kim J M, Parmar K, Huang M, et al. Inactivation of murine Usp1 results in genomic instability and a Fanconi anemia phenotype. Dev Cell. 2009; 16:314-320) results in decreased HR. A gene conversion assay was used to examine the effect of C527 on cellular HR activity (FIG. 8A).

[5] = molecular target: T2, USP12/UAF1/WDR20 complex (Homo sapiens, UniProt O75317); assay: ubiquitin-AMC assay with USP12/UAF1/WDR20; assay type: biochemical
T2 construct: made in house; host or cells: Sf9
Description: as §2, §3, §4

T2 sequence (O75317 whole entry, species assumed): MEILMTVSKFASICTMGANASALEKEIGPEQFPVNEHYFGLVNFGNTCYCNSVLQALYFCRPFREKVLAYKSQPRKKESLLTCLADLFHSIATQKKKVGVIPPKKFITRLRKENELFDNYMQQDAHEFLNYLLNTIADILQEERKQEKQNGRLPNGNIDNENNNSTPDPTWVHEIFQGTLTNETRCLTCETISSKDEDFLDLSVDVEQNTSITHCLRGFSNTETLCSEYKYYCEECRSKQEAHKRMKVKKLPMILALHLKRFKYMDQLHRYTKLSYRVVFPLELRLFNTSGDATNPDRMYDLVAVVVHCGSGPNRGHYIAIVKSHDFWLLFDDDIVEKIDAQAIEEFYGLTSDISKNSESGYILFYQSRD
T2 sequence (Q8TAF3 whole entry partner, species assumed): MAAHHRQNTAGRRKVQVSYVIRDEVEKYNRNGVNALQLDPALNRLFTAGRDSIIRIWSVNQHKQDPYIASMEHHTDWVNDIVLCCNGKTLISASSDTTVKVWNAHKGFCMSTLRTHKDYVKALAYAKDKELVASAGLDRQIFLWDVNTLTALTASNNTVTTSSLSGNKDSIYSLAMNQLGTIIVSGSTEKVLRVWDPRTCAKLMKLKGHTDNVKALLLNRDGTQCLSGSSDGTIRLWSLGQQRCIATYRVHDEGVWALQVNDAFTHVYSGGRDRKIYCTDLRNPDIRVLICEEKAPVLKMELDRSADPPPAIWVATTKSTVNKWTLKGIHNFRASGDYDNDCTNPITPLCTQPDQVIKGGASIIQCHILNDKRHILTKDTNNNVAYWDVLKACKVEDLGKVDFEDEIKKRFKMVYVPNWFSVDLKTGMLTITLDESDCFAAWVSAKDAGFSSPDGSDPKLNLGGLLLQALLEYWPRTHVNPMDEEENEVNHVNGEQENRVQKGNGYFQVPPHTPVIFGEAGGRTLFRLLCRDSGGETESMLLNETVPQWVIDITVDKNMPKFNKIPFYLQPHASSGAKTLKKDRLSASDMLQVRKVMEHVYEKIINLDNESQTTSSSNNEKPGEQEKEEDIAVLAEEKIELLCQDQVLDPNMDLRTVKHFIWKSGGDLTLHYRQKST
T2 sequence (Q8TBZ3 whole entry partner, species assumed): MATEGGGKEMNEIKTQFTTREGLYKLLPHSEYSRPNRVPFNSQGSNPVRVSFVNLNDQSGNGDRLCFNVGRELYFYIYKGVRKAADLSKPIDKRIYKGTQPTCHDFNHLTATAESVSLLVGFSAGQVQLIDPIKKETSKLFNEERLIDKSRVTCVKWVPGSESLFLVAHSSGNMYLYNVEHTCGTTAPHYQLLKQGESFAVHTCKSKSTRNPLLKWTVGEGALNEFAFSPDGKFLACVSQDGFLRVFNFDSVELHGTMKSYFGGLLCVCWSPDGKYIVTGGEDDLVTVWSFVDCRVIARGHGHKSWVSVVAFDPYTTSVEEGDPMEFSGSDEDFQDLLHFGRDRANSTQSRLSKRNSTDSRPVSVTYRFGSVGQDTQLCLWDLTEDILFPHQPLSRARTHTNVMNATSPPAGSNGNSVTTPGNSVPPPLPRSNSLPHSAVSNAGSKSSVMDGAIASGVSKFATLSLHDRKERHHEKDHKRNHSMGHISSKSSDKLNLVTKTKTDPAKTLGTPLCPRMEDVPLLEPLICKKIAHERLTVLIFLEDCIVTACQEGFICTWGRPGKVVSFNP

O=C1c2ccccc2C(=O)c2oc(-c3ccc(F)cc3)nc21 [Formula IV (527)]
gene conversion (cellular GFP), HR activity [1]: dose-dependent decreased in gene conversion
inhibitory effect on UCH-L1 [2]: considerably less inhibitory effect
sensitization of cells to CPT ([3]; then CPT 0.1 μM for 4 more days): sensitized cells
sensitization of cells to MMC ([3]; then MMC 0.25 μM for 4 more days): sensitized cells
sensitization of cells to etoposide ([3]; then etoposide for 4 more days): not to etoposide
non-homologous end joining (NHEJ) activity [4]: did not inhibit
IC50 compared with USP1/UAF1 ([5]; FIG. 6D): slightly higher
DUB activity of the USP12/UAF1/WDR20 complex ([5]; in vitro, FIG. 6A): inhibited
